{"source": "paper PMC7486443", "about": "“Generation of Phenothiazine with Potent Anti-TLK1 Activity for Prostate Cancer Therapy” (iScience, 2020)", "assay_in_all_cases": "biochemical", "parameters_in_all_cases": "DiscoverX KINOMEscan scanMAX competition binding panel, single concentration, percent of control; remaining binding: dose or concentration left out as unconfirmed", "conditions_in_all_cases": "KINOMEscan binding, percent of control; read-out: Table S4_SCANMAX REPORT - related to Fig. 1 / Percent Control", "key": {"ARK5": {"target": "T1, ARK5 (Homo sapiens, UniProt O60285)", "T1 construct": "gene NUAK1"}, "AURKA": {"target": "AURKA (Homo sapiens, UniProt O14965)", "sequence (O14965 whole entry)": "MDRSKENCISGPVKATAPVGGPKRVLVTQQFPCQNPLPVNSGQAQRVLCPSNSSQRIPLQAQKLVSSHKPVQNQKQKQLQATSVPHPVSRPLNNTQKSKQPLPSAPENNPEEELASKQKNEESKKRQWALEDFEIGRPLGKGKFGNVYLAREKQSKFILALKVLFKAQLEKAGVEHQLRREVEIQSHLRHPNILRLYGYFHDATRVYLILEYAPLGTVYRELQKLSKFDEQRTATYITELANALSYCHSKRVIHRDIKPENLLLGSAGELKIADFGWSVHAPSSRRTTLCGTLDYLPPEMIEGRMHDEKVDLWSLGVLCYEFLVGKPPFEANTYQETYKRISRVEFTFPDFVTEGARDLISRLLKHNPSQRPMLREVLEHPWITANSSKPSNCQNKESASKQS"}, "CDK4": {"target": "CDK4 (Homo sapiens, UniProt P11802)"}, "CSF1R-autoinhibited": {"target": "CSF1R-autoinhibited (Homo sapiens, UniProt P07333)"}, "DYRK1A": {"target": "DYRK1A (Homo sapiens, UniProt Q13627)"}, "EGFR(E746-A750del)": {"target": "EGFR(E746-A750del) (Homo sapiens, UniProt P00533, DEL746-750)"}, "NDR2": {"target": "T2, NDR2 (Homo sapiens, UniProt Q9Y2H1)", "T2 construct": "gene STK38L"}, "NEK1": {"target": "NEK1 (Homo sapiens, UniProt Q96PY6)"}, "PAK7": {"target": "T3, PAK7 (Homo sapiens, UniProt Q9P286)", "T3 construct": "gene PAK5"}, "PCTK3": {"target": "T4, PCTK3 (Homo sapiens, UniProt Q07002)", "T4 construct": "gene CDK18", "T4 sequence (Q07002 whole entry)": "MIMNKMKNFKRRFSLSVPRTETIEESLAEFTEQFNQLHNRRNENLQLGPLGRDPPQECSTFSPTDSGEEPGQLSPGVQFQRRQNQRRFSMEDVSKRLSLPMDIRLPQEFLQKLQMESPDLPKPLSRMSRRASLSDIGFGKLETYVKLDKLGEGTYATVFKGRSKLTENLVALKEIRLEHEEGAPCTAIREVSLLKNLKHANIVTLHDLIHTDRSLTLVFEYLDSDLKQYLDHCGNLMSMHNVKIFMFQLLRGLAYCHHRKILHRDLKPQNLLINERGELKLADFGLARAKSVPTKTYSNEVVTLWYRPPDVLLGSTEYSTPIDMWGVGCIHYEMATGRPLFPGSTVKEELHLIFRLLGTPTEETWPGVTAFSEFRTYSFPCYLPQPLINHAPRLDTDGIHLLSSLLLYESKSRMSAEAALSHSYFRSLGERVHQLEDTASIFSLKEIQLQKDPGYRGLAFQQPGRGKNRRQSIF"}, "PIKFYVE": {"target": "PIKFYVE (Homo sapiens, UniProt Q9Y2I7)", "sequence (Q9Y2I7 whole entry)": "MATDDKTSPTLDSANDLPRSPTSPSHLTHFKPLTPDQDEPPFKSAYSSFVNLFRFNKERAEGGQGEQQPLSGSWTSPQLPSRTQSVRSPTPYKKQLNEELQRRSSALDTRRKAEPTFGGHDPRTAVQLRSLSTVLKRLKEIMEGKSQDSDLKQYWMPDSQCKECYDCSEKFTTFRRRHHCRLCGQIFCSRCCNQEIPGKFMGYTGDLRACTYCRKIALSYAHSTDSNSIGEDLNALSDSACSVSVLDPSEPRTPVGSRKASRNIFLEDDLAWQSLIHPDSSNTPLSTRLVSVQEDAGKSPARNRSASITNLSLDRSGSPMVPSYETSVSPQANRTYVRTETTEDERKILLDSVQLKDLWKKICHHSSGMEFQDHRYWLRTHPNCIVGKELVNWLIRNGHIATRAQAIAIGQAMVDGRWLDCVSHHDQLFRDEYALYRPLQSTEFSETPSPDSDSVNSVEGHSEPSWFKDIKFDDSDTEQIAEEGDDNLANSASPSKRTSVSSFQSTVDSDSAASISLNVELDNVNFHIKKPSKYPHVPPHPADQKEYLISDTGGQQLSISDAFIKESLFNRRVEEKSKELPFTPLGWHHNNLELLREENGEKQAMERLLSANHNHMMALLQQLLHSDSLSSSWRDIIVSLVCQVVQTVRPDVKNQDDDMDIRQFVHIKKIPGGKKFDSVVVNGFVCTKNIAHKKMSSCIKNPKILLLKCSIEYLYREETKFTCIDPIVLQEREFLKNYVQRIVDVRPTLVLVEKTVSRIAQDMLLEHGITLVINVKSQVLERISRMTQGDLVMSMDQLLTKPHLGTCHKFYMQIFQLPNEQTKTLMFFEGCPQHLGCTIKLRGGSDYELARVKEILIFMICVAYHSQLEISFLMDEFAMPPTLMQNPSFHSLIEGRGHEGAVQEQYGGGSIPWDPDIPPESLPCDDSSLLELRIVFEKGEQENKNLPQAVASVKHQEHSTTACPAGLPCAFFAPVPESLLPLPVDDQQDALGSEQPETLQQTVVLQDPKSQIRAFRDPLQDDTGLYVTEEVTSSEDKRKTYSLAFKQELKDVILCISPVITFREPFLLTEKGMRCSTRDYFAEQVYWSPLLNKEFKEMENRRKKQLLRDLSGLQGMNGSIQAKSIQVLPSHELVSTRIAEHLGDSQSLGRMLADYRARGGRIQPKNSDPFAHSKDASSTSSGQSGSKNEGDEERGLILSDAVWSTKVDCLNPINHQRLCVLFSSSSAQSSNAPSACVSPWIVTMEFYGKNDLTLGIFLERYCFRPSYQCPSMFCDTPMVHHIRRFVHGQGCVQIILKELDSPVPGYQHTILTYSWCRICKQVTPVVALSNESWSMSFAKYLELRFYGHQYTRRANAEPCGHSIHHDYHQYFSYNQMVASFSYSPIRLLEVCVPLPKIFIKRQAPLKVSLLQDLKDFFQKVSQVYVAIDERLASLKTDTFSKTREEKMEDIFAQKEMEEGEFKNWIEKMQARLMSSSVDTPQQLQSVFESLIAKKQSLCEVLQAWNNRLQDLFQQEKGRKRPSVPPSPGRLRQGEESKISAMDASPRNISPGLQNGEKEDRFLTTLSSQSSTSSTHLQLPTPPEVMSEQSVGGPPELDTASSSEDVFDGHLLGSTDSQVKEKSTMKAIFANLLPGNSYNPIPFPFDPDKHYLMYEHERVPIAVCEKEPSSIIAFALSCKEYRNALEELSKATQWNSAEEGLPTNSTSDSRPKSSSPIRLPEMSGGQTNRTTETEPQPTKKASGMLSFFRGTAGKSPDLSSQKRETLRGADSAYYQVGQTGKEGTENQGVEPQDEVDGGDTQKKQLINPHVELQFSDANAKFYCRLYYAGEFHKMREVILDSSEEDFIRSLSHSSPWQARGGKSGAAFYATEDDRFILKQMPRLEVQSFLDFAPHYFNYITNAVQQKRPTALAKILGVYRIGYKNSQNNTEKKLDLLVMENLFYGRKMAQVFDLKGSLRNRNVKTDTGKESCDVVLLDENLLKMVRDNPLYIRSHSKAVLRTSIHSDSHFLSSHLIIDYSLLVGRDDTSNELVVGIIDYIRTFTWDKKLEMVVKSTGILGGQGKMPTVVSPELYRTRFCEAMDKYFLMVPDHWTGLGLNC"}, "PIM3": {"target": "PIM3 (Homo sapiens, UniProt Q86V86)"}, "SGK2": {"target": "SGK2 (Homo sapiens, UniProt Q9HBY8)", "sequence (Q9HBY8 whole entry)": "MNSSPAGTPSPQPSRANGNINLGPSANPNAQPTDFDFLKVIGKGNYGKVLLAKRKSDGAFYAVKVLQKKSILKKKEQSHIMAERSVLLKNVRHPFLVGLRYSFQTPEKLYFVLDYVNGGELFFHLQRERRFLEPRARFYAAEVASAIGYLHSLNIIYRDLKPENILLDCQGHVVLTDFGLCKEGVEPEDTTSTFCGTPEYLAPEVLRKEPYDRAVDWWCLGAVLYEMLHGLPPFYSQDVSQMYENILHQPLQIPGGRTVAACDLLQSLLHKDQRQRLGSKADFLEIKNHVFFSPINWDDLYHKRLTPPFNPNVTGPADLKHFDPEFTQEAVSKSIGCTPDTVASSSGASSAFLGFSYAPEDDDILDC"}, "SRPK1": {"target": "SRPK1 (Homo sapiens, UniProt Q96SB4)"}, "TAOK1": {"target": "TAOK1 (Homo sapiens, UniProt Q7L7X3)"}, "VPS34": {"target": "T5, VPS34 (Homo sapiens, UniProt Q8NEB9)", "T5 construct": "gene PIK3C3", "T5 sequence (Q8NEB9 whole entry)": "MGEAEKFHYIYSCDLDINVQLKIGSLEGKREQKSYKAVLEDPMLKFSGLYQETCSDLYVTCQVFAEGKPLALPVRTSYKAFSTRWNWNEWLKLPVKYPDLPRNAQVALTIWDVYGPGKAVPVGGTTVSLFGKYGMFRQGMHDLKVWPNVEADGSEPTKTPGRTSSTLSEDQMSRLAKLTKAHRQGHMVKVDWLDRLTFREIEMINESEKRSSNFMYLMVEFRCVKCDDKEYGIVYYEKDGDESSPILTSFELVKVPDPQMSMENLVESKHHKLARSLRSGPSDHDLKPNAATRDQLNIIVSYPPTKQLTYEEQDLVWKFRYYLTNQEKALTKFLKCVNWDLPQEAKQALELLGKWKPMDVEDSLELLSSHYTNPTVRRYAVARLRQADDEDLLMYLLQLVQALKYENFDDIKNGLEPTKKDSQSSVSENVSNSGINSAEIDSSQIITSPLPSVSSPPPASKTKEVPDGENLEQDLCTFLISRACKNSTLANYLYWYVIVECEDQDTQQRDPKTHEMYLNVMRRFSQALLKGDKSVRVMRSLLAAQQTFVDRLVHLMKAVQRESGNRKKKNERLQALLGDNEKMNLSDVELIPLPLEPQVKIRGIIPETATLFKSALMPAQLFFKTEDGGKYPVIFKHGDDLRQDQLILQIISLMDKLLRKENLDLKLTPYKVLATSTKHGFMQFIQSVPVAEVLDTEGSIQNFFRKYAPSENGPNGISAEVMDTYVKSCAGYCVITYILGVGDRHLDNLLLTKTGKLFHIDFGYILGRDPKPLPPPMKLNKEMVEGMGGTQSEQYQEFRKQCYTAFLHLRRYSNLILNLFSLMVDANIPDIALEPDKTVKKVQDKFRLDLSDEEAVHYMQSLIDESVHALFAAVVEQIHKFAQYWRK"}, "WEE1": {"target": "WEE1 (Homo sapiens, UniProt P30291)"}, "p38-delta": {"target": "T6, p38-delta (Homo sapiens, UniProt O15264)", "T6 construct": "gene MAPK13", "T6 sequence (O15264 whole entry)": "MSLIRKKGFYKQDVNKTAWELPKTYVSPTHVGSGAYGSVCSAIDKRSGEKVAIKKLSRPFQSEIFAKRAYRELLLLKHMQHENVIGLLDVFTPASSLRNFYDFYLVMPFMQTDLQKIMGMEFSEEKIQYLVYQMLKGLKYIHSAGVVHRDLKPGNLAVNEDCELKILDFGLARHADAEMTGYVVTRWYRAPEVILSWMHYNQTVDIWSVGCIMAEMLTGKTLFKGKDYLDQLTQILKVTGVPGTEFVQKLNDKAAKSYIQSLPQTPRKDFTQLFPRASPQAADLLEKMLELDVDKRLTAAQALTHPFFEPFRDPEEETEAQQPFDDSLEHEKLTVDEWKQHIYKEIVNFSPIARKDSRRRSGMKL"}}, "data": [{"smiles": "c1ccc2c(c1)Sc1ccccc1N2CCN1CCOCC1", "note": "[J54]", "values": [{"measurement": "remaining binding", "setting": "ARK5", "result": 79, "unit": "%"}, {"measurement": "remaining binding", "setting": "AURKA", "result": 100, "unit": "%"}, {"measurement": "remaining binding", "setting": "CDK4", "result": 100, "unit": "%"}, {"measurement": "remaining binding", "setting": "CSF1R-autoinhibited", "result": 85, "unit": "%"}, {"measurement": "remaining binding", "setting": "DYRK1A", "result": 80, "unit": "%"}, {"measurement": "remaining binding", "setting": "EGFR(E746-A750del)", "result": 76, "unit": "%"}, {"measurement": "remaining binding", "setting": "NDR2", "result": 100, "unit": "%"}, {"measurement": "remaining binding", "setting": "NEK1", "result": 95, "unit": "%"}, {"measurement": "remaining binding", "setting": "PAK7", "result": 100, "unit": "%"}, {"measurement": "remaining binding", "setting": "PCTK3", "result": 100, "unit": "%"}, {"measurement": "remaining binding", "setting": "PIKFYVE", "result": 94, "unit": "%"}, {"measurement": "remaining binding", "setting": "PIM3", "result": 47, "unit": "%"}, {"measurement": "remaining binding", "setting": "SGK2", "result": 90, "unit": "%"}, {"measurement": "remaining binding", "setting": "SRPK1", "result": 100, "unit": "%"}, {"measurement": "remaining binding", "setting": "TAOK1", "result": 100, "unit": "%"}, {"measurement": "remaining binding", "setting": "VPS34", "result": 86, "unit": "%"}, {"measurement": "remaining binding", "setting": "WEE1", "result": 78, "unit": "%"}, {"measurement": "remaining binding", "setting": "p38-delta", "result": 100, "unit": "%"}]}]}
